ChEMBL document CHEMBL3044736, “Synthesis, characterization, solvatochromic properties, and antimicrobial evaluation of 5-acetyl-2-thioxo-dihydro-pyrimidine-4,6-dione-based chalcones” (2013)
In brackets after ≈: the same amount, converted by molar mass.

Assays:
Assay type in all cases: functional
[1] = tested on: Penicillium; test: Antimicrobial activity against Penicillium wild strain assessed as diameter of growth inhibition zone at 250 ug/ml after 48-96 hr by agar cup diffusion method; details: read-out: DIZ
[2] = tested on: Penicillium; test: Antimicrobial activity against Penicillium wild strain assessed as diameter of growth inhibition zone at 100 ug/ml after 48-96 hr by agar cup diffusion method; details: read-out: DIZ
[3] = tested on: Trichophyton rubrum; test: Antimicrobial activity against Trichophyton rubrum MTCC 296 assessed as diameter of growth inhibition zone at 100 ug/ml after 48-96 hr by agar cup diffusion method; details: read-out: DIZ
[4] = tested on: Aspergillus clavatus; test: Antimicrobial activity against Aspergillus clavatus MTCC 1323 assessed as diameter of growth inhibition zone at 100 ug/ml after 48-96 hr by agar cup diffusion method; details: read-out: DIZ
[5] = tested on: Candida albicans; test: Antimicrobial activity against Candida albicans MTCC 227 assessed as diameter of growth inhibition zone at 100 ug/ml after 48-96 hr by agar cup diffusion method; details: read-out: DIZ
[6] = tested on: Penicillium; test: Antimicrobial activity against Penicillium wild strain assessed as diameter of growth inhibition zone at 50 ug/ml after 48-96 hr by agar cup diffusion method; details: read-out: DIZ
[7] = tested on: Trichophyton rubrum; test: Antimicrobial activity against Trichophyton rubrum MTCC 296 assessed as diameter of growth inhibition zone at 50 ug/ml after 48-96 hr by agar cup diffusion method; details: read-out: DIZ
[8] = tested on: Aspergillus clavatus; test: Antimicrobial activity against Aspergillus clavatus MTCC 1323 assessed as diameter of growth inhibition zone at 50 ug/ml after 48-96 hr by agar cup diffusion method; details: read-out: DIZ
[9] = tested on: Candida albicans; test: Antimicrobial activity against Candida albicans MTCC 227 assessed as diameter of growth inhibition zone at 50 ug/ml after 48-96 hr by agar cup diffusion method; details: read-out: DIZ
[10] = tested on: Penicillium; test: Antimicrobial activity against Penicillium wild strain assessed as diameter of growth inhibition zone at 25 ug/ml after 48-96 hr by agar cup diffusion method; details: read-out: DIZ
[11] = tested on: Trichophyton rubrum; test: Antimicrobial activity against Trichophyton rubrum MTCC 296 assessed as diameter of growth inhibition zone at 25 ug/ml after 48-96 hr by agar cup diffusion method; details: read-out: DIZ
[12] = tested on: Aspergillus clavatus; test: Antimicrobial activity against Aspergillus clavatus MTCC 1323 assessed as diameter of growth inhibition zone at 25 ug/ml after 48-96 hr by agar cup diffusion method; details: read-out: DIZ
[13] = tested on: Candida albicans; test: Antimicrobial activity against Candida albicans MTCC 227 assessed as diameter of growth inhibition zone at 25 ug/ml after 48-96 hr by agar cup diffusion method; details: read-out: DIZ
[14] = tested on: Penicillium; test: Antimicrobial activity against Penicillium wild strain by agar cup diffusion method
[15] = tested on: Aspergillus clavatus; test: Antimicrobial activity against Aspergillus clavatus MTCC 1323 by agar cup diffusion method
[16] = tested on: Pseudomonas aeruginosa; test: Antimicrobial activity against Pseudomonas aeruginosa MTCC 1688 assessed as diameter of growth inhibition zone at 25 ug/ml after 18-24 hr by agar cup diffusion method; details: read-out: DIZ
[17] = tested on: Escherichia coli; test: Antimicrobial activity against Escherichia coli MTCC 443 assessed as diameter of growth inhibition zone at 25 ug/ml after 18-24 hr by agar cup diffusion method; details: read-out: DIZ
[18] = tested on: Staphylococcus aureus; test: Antimicrobial activity against Staphylococcus aureus MTCC 96 assessed as diameter of growth inhibition zone at 25 ug/ml after 18-24 hr by agar cup diffusion method; details: read-out: DIZ
[19] = tested on: Streptococcus pyogenes; test: Antimicrobial activity against Streptococcus pyogenes MTCC 442 assessed as diameter of growth inhibition zone at 25 ug/ml after 18-24 hr by agar cup diffusion method; details: read-out: DIZ
[20] = tested on: Klebsiella pneumoniae; test: Antimicrobial activity against Klebsiella pneumoniae MTCC 109 by agar cup diffusion method
[21] = tested on: Escherichia coli; test: Antimicrobial activity against Escherichia coli MTCC 443 by agar cup diffusion method
[22] = tested on: Pseudomonas aeruginosa; test: Antimicrobial activity against Pseudomonas aeruginosa MTCC 1688 by agar cup diffusion method
[23] = tested on: Staphylococcus aureus; test: Antimicrobial activity against Staphylococcus aureus MTCC 96 by agar cup diffusion method
[24] = tested on: Streptococcus pyogenes; test: Antimicrobial activity against Streptococcus pyogenes MTCC 442 by agar cup diffusion method
[25] = tested on: Trichophyton rubrum; test: Antimicrobial activity against Trichophyton rubrum MTCC 296 by agar cup diffusion method
[26] = tested on: Candida albicans; test: Antimicrobial activity against Candida albicans MTCC 227 by agar cup diffusion method
[27] = tested on: Klebsiella pneumoniae; test: Antimicrobial activity against Klebsiella pneumoniae MTCC 109 assessed as diameter of growth inhibition zone at 250 ug/ml after 18-24 hr by agar cup diffusion method; details: read-out: DIZ
[28] = tested on: Pseudomonas aeruginosa; test: Antimicrobial activity against Pseudomonas aeruginosa MTCC 1688 assessed as diameter of growth inhibition zone at 250 ug/ml after 18-24 hr by agar cup diffusion method; details: read-out: DIZ
[29] = tested on: Escherichia coli; test: Antimicrobial activity against Escherichia coli MTCC 443 assessed as diameter of growth inhibition zone at 250 ug/ml after 18-24 hr by agar cup diffusion method; details: read-out: DIZ
[30] = tested on: Staphylococcus aureus; test: Antimicrobial activity against Staphylococcus aureus MTCC 96 assessed as diameter of growth inhibition zone at 250 ug/ml after 18-24 hr by agar cup diffusion method; details: read-out: DIZ
[31] = tested on: Streptococcus pyogenes; test: Antimicrobial activity against Streptococcus pyogenes MTCC 442 assessed as diameter of growth inhibition zone at 250 ug/ml after 18-24 hr by agar cup diffusion method; details: read-out: DIZ
[32] = tested on: Klebsiella pneumoniae; test: Antimicrobial activity against Klebsiella pneumoniae MTCC 109 assessed as diameter of growth inhibition zone at 100 ug/ml after 18-24 hr by agar cup diffusion method; details: read-out: DIZ
[33] = tested on: Pseudomonas aeruginosa; test: Antimicrobial activity against Pseudomonas aeruginosa MTCC 1688 assessed as diameter of growth inhibition zone at 100 ug/ml after 18-24 hr by agar cup diffusion method; details: read-out: DIZ
[34] = tested on: Escherichia coli; test: Antimicrobial activity against Escherichia coli MTCC 443 assessed as diameter of growth inhibition zone at 100 ug/ml after 18-24 hr by agar cup diffusion method; details: read-out: DIZ
[35] = tested on: Staphylococcus aureus; test: Antimicrobial activity against Staphylococcus aureus MTCC 96 assessed as diameter of growth inhibition zone at 100 ug/ml after 18-24 hr by agar cup diffusion method; details: read-out: DIZ
[36] = tested on: Streptococcus pyogenes; test: Antimicrobial activity against Streptococcus pyogenes MTCC 442 assessed as diameter of growth inhibition zone at 100 ug/ml after 18-24 hr by agar cup diffusion method; details: read-out: DIZ
[37] = tested on: Klebsiella pneumoniae; test: Antimicrobial activity against Klebsiella pneumoniae MTCC 109 assessed as diameter of growth inhibition zone at 50 ug/ml after 18-24 hr by agar cup diffusion method; details: read-out: DIZ
[38] = tested on: Pseudomonas aeruginosa; test: Antimicrobial activity against Pseudomonas aeruginosa MTCC 1688 assessed as diameter of growth inhibition zone at 50 ug/ml after 18-24 hr by agar cup diffusion method; details: read-out: DIZ
[39] = tested on: Escherichia coli; test: Antimicrobial activity against Escherichia coli MTCC 443 assessed as diameter of growth inhibition zone at 50 ug/ml after 18-24 hr by agar cup diffusion method; details: read-out: DIZ
[40] = tested on: Staphylococcus aureus; test: Antimicrobial activity against Staphylococcus aureus MTCC 96 assessed as diameter of growth inhibition zone at 50 ug/ml after 18-24 hr by agar cup diffusion method; details: read-out: DIZ
[41] = tested on: Streptococcus pyogenes; test: Antimicrobial activity against Streptococcus pyogenes MTCC 442 assessed as diameter of growth inhibition zone at 50 ug/ml after 18-24 hr by agar cup diffusion method; details: read-out: DIZ
[42] = tested on: Klebsiella pneumoniae; test: Antimicrobial activity against Klebsiella pneumoniae MTCC 109 assessed as diameter of growth inhibition zone at 25 ug/ml after 18-24 hr by agar cup diffusion method; details: read-out: DIZ
[43] = tested on: Trichophyton rubrum; test: Antimicrobial activity against Trichophyton rubrum MTCC 296 assessed as diameter of growth inhibition zone at 250 ug/ml after 48-96 hr by agar cup diffusion method; details: read-out: DIZ
[44] = tested on: Aspergillus clavatus; test: Antimicrobial activity against Aspergillus clavatus MTCC 1323 assessed as diameter of growth inhibition zone at 250 ug/ml after 48-96 hr by agar cup diffusion method; details: read-out: DIZ
[45] = tested on: Candida albicans; test: Antimicrobial activity against Candida albicans MTCC 227 assessed as diameter of growth inhibition zone at 250 ug/ml after 48-96 hr by agar cup diffusion method; details: read-out: DIZ

O=C(/C=C/c1ccc(Cl)cc1)C1C(=O)NC(=S)NC1=O
zone of inhibition at 250 µg/mL [1]: 25 mm | zone of inhibition at 100 µg/mL [2]: 23 mm | zone of inhibition at 100 µg/mL [3]: 21 mm | zone of inhibition at 100 µg/mL [4]: 22 mm | zone of inhibition at 100 µg/mL [5]: 22 mm | zone of inhibition at 50 µg/mL [6]: 22 mm | zone of inhibition at 50 µg/mL [7]: 20 mm | zone of inhibition at 50 µg/mL [8]: 20 mm | zone of inhibition at 50 µg/mL [9]: 21 mm | zone of inhibition at 25 µg/mL [10]: 19 mm | zone of inhibition at 25 µg/mL [11]: 18 mm | zone of inhibition at 25 µg/mL [12]: 18 mm | zone of inhibition at 25 µg/mL [13]: 20 mm | MFC [14]: > 1000 µg/mL | MIC [14]: > 1000 µg/mL | MFC [15]: 500 µg/mL (≈ 1620 µM) | MIC [15]: 500 µg/mL (≈ 1620 µM) | zone of inhibition at 25 µg/mL [16]: 11 mm | zone of inhibition at 25 µg/mL [17]: 11 mm | zone of inhibition at 25 µg/mL [18]: 11 mm | zone of inhibition at 25 µg/mL [19]: 11 mm | MBC [20]: 125 µg/mL (≈ 405 µM) | MIC [20]: 100 µg/mL (≈ 324 µM) | MBC [21]: 125 µg/mL (≈ 405 µM) | MIC [21]: 125 µg/mL (≈ 405 µM) | MBC [22]: 250 µg/mL (≈ 810 µM) | MIC [22]: 200 µg/mL (≈ 648 µM) | MBC [23]: 100 µg/mL (≈ 324 µM) | MIC [23]: 100 µg/mL (≈ 324 µM) | MBC [24]: 125 µg/mL (≈ 405 µM) | MIC [24]: 100 µg/mL (≈ 324 µM) | MFC [25]: > 1000 µg/mL | MIC [25]: > 1000 µg/mL | MFC [26]: 500 µg/mL (≈ 1620 µM) | MIC [26]: 500 µg/mL (≈ 1620 µM) | zone of inhibition at 250 µg/mL [27]: 20 mm | zone of inhibition at 250 µg/mL [28]: 15 mm | zone of inhibition at 250 µg/mL [29]: 19 mm | zone of inhibition at 250 µg/mL [30]: 15 mm | zone of inhibition at 250 µg/mL [31]: 19 mm | zone of inhibition at 100 µg/mL [32]: 17 mm | zone of inhibition at 100 µg/mL [33]: 13 mm | zone of inhibition at 100 µg/mL [34]: 17 mm | zone of inhibition at 100 µg/mL [35]: 13 mm | zone of inhibition at 100 µg/mL [36]: 17 mm | zone of inhibition at 50 µg/mL [37]: 15 mm | zone of inhibition at 50 µg/mL [38]: 12 mm | zone of inhibition at 50 µg/mL [39]: 14 mm | zone of inhibition at 50 µg/mL [40]: 12 mm | zone of inhibition at 50 µg/mL [41]: 14 mm | zone of inhibition at 25 µg/mL [42]: 13 mm | zone of inhibition at 250 µg/mL [43]: 22 mm | zone of inhibition at 250 µg/mL [44]: 22 mm | zone of inhibition at 250 µg/mL [45]: 23 mm
